Among the data in patent US20230312528A1, “2-OXO-IMIDAZOLIDINE-4-CARBOXAMIDES AS NAV1.8 INHIBITORS” (Merck Sharp & Dohme LLC, priority 2020, published 2023) are IC50 values, retold here.

Molecules are shown by their SMILES.

Chain of human NaV1.8 (Q9Y5Y9 whole entry): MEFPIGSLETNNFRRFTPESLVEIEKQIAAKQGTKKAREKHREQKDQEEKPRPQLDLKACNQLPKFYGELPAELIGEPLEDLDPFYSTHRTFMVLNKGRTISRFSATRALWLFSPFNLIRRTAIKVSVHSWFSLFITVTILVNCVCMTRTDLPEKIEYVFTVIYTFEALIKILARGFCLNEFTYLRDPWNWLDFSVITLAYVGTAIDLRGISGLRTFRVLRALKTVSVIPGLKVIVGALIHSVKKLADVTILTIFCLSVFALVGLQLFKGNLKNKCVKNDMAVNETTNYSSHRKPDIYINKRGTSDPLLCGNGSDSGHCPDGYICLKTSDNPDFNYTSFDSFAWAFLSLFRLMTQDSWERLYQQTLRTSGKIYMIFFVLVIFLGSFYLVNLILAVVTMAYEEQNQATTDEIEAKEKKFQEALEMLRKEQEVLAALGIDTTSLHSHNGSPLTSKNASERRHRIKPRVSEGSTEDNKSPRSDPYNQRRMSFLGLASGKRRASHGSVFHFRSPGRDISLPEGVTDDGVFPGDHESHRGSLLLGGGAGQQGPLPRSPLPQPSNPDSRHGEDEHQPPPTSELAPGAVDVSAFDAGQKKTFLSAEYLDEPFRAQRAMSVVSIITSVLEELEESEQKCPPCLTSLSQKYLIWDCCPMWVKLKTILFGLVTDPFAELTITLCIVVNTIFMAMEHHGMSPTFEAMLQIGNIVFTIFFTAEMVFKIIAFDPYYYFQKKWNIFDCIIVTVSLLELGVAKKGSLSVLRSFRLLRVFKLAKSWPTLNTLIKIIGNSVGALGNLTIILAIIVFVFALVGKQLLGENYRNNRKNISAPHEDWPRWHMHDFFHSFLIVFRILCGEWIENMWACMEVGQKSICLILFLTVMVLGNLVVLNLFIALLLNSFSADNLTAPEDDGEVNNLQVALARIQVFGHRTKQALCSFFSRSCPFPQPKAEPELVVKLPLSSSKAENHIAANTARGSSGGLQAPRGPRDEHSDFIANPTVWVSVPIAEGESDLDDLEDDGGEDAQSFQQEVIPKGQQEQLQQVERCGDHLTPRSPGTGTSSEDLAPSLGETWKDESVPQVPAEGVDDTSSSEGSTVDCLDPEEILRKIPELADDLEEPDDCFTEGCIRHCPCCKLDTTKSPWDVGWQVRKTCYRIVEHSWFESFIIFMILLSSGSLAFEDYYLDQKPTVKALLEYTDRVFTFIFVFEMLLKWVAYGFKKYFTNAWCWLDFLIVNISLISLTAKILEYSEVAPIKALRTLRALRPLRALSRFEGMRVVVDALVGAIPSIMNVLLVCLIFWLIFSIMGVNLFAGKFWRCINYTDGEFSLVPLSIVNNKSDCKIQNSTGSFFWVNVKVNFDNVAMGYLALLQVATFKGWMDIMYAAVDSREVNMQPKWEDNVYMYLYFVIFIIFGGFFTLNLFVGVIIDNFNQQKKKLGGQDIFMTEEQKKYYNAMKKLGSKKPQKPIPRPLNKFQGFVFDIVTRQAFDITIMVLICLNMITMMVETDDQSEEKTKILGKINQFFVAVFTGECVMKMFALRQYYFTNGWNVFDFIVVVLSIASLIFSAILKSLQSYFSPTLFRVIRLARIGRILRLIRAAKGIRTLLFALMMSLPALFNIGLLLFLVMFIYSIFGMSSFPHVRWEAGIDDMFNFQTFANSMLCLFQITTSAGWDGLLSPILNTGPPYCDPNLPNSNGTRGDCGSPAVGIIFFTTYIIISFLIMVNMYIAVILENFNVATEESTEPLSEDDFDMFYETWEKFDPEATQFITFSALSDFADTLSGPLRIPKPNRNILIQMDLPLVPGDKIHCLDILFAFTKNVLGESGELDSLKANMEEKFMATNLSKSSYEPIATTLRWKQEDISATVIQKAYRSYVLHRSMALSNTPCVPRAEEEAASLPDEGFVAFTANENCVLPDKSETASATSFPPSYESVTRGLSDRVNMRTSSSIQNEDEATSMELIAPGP

The experiment addresses human NaV1.8 (Homo sapiens (Human), UniProt Q9Y5Y9). Nature of the experiment: Nav1.8 Qube automated patch-clamp assay. Format: cell-based. To be noted: human NaV1.8 stably expressed in HEK 293 cells; automated 384-well patch-clamp; resting or inactivated state not specified. Summed up: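 Human NaV1.8 in HEK293 cells, automated whole-cell patch clamp at room temperature: 1 Hz train of ten 20 ms pulses to 10 mV from −90 mV, repolarization to −67 mV. First- and tenth-pulse peak currents gave resting and inactivated-state IC50 values via Hill fits.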
(In patch-clamp work, channel activity is measured electrically.)
On to `Cc1nc2cc(C(NC(=O)[C@@H]3CNC(=O)N3)c3ccc(F)c(Cl)c3)ccc2s1` (single isomer, unassigned) [Example 66B, (S)—N—((R or S)-(3-chloro-4-fluorophenyl)(2-methylbenzo[d]thiazol-5-yl)methyl)-2-oxoimidazolidine-4-carboxamide], for which the IC50 (as a rule, the point on the concentration scale where inhibition reaches its midpoint) is 3.8 nM.

`O=C1NC[C@@H](C(=O)NC(c2ccc(Cl)cc2)c2ccn3nccc3c2)N1` (single isomer, unassigned) [Example 80B, (S)-N-((R or S)-(4-chlorophenyl) (pyrazolo[1,5-a]pyridin-5-yl)methyl)-2-oxoimidazolidine-4-carboxamide] returned a half-maximal inhibitory concentration (IC50) of 107 nM. This IC50 lies about 28-fold higher than the previous one.

`O=C1NC[C@@H](C(=O)NC(c2ccc(F)c(Cl)c2F)C2COC(C(F)(F)F)C2)N1` (single isomer, unassigned) [Example 79A, (S)-N-((R or S)-(3-chloro-2,4-difluoro-phenyl)((cis or trans)-5-(trifluoro-methyl)-tetrahydrofuran-3-yl)methyl)-2-oxoimidazolidine-4-carboxamide] displayed an IC50 of 39 nM.

Regarding `O=C1NC[C@@H](C(=O)NC(COc2ccc(F)c(Cl)c2)c2ccc(F)c(Cl)c2)N1` (single isomer, unassigned) [Example 1A, (S)—N—((R or S)-2-(3-chloro-4-fluorophenoxy)-1-(3-chloro-4-fluorophenyl)ethyl)-2-oxoimidazolidine-4-carboxamide], the half-inhibitory concentration (IC50) was 4 nM. This IC50 is about 9.8-fold lower than that of the molecule before.

The molecule `O=C1NC[C@@H](C(=O)NC(c2ccc(F)c(C(F)F)n2)c2ccc(F)c(Cl)c2F)N1` (single isomer, unassigned) [Example 63A, (S)-N-((R or S)-(3-chloro-2,4-difluorophenyl)(6-(difluoromethyl)-5-fluoropyridin-2-yl)methyl)-2-oxoimidazolidine-4-carboxamide] yielded a 50% inhibitory concentration (IC50) of 4.2 nM. The IC50 values of the last two molecules are within 1.5-fold of each other.

`CC1(C)CC(C(NC(=O)[C@@H]2CNC(=O)N2)c2ccc(Cl)cc2)CCN1CC(F)(F)F` (single isomer, unassigned) [Example 91C, (4S)—N—((R or S)(4-chlorophenyl)((R or S)2,2-dimethyl-1-(2,2,2-trifluoroethyl)piperidin-4-yl)methyl)-2-oxoimidazolidine-4-carboxamide] yielded a 50% inhibitory concentration (IC50) of 2960 nM.

On to `O=C1NC[C@@H](C(=O)NC(CC2CCCCC2)c2ccc(F)c(Cl)c2F)N1` (single isomer, unassigned) [Example 54B, (S)-N-((R or S)-1-(3-chloro-2,4-difluorophenyl)-2-cyclohexylethyl)-2-oxoimidazolidine-4-carboxamide], for which the IC50 is 50 nM.

`O=C1NC[C@@H](C(=O)NC(c2cnc(C3CC3)c(Cl)c2)c2ccc(F)c(Cl)c2F)N1` (single isomer, unassigned) [Example 13B, (4S)-N-[((R or S)-5-chloro-6-cyclo-propylpyridin-3-yl)(3-chloro-2,4-difluoro-phenyl)methyl]-2-oxoimidazolidine-4-carboxamide] registered an IC50 of 38 nM.

Molecule `O=C1NC[C@@H](C(=O)NC(COC2CCC(F)(F)CC2)c2ccc(F)c(Cl)c2)N1` (single isomer, unassigned) [Example 29A, (4S)-N-{1-((R or S)-3-chloro-4-fluorophenyl)-2-[(4,4-difluoro-cyclohexyl)oxy]ethyl}-2-oxoimidazolidine-4-carboxamide] displayed a half-inhibitory concentration (IC50) of 110 nM.

The molecule `CN1CC(C(=O)NC(c2ccc(Cl)cc2)c2ccc(Cl)cc2)NC1=O` (single isomer, unassigned) [Example 10B, (R or S)-N-[bis(4-chlorophenyl)methyl]-1-methyl-2-oxoimidazolidine-4-carboxamide] gave a 50% inhibitory concentration (IC50) of 504 nM. Compared with the last molecule, the IC50 is about 4.6-fold higher.

As for `O=C1NC[C@@H](C(=O)NC(COc2ccc(C(F)(F)F)nc2)c2ccc(F)c(Cl)c2)N1` (mixture of isomers) [Example 53, (4S)-N-(1-(3-chloro-4-fluorophenyl)-2-((6-(trifluoromethyl)pyridin-3-yl)oxy)ethyl)-2-oxoimidazolidine-4-carboxamide], the IC50 was 219 nM.

Regarding `N#Cc1cc(C(NC(=O)[C@@H]2CNC(=O)N2)c2ccc(OC(F)(F)F)cc2)ccc1Cl` (single isomer, unassigned) [Example 57A, (S)-N-((R or S)-(4-chloro-3-cyanophenyl)(4-(trifluoromethoxy)phenyl)methyl)-2-oxoimidazolidine-4-carboxamide], the midpoint of inhibition, the IC50, lay at 3.5 nM.

As for `O=C1NC[C@@H](C(=O)NC(CC2CCC(C(F)(F)F)CC2)c2ccc(F)c(Cl)c2F)N1` (single isomer, unassigned) [Example 23D, (S)—N—((R or S)-1-(3-chloro-2,4-difluorophenyl)-2-((cis or trans)-4-(trifluoromethyl)cyclohexyl)ethyl)-2-oxoimidazolidine-4-carboxamide], the IC50 was found to be 190 nM. This IC50 lies about 54-fold higher than the previous one.

`O=C1NC[C@@H](C(=O)NC(c2cnc(OCC(F)(F)F)s2)c2ccc(F)c(Cl)c2F)N1` (single isomer, unassigned) [Example 35B, (S)-N-((R or S)-(3-chloro-2,4-difluorophenyl)(2-(2,2,2-trifluoroethoxy)thiazol-5-yl)methyl)-2-oxoimidazolidine-4-carboxamide] came in with an IC50 of 64 nM. Compared with the last molecule, the IC50 is about 3-fold lower.

In turn, `O=C1NC[C@@H](C(=O)NC(c2cnc(C(F)(F)F)c(Cl)c2)c2ccc(Cl)c(C(F)(F)F)n2)N1` (single isomer, unassigned) [Example 56A, (S)-N-((R or S)-(5-chloro-6-(trifluoromethyl)pyridin-2-yl)(5-chloro-6-(trifluoromethyl)pyridin-3-yl)methyl)-2-oxoimidazolidine-4-carboxamide] gave an IC50 of 2.5 nM.

In turn, `CN1CCC(C(NC(=O)[C@@H]2CNC(=O)N2)c2ccc(F)c(Cl)c2F)CC1C(F)(F)F` (single isomer, unassigned) [Example 78C, (S)-N-((R or S)-(3-chloro-2,4-difluoro-phenyl)((cis or trans)-1-methyl-2-(trifluoro-methyl)piperidin-4-yl)methyl)-2-oxoimidazolidine-4-carboxamide] had an IC50 of 8630 nM.

In turn, `O=C1NC[C@@H](C(=O)NC(c2ccc(F)c(Cl)c2)c2ccc(F)c(OCC(F)(F)F)n2)N1` (single isomer, unassigned) [Example 11B, (4S)-N-{((R or S)-3-chloro-4-fluoro-phenyl)[5-fluoro-6-(2,2,2-trifluoro-ethoxy)pyridin-2-yl]methyl}-2-oxoimidazolidine-4-carboxamide] registered an IC50 of 3.9 nM.

`O=C1NC[C@@H](C(=O)NC(c2ccc(OC(F)(F)F)cc2)c2cccc(Cl)c2)N1` (single isomer, unassigned) [Example 9B, (4S)—N—((R or S)-(3-chlorophenyl)(4-(trifluoromethoxy)-phenyl)methyl)-2-oxoimidazolidine-4-carboxamide] gave an IC50 of 2 nM.

`O=C1NC[C@@H](C(=O)NC(c2ccc(F)c(Cl)c2F)[C@@H]2CC[C@@H](C(F)(F)F)CO2)N1` (single isomer, unassigned) [Example 8B, (S)—N—((R or S)-(3-chloro-2,4-difluorophenyl)((trans)-5-(trifluoromethyl)tetrahydro-2H-pyran-2-yl)methyl)-2-oxoimidazolidine-4-carboxamide] returned an IC50 of 8.4 nM. Against the preceding molecule, the IC50 is about 4.2-fold higher.

`O=C1NC[C@@H](C(=O)NC(c2ccc(F)c(Cl)c2)[C@@H]2CC[C@H]2C(F)(F)F)N1` (single isomer, unassigned) [Example 67B, (S)-N-((R or S)-(3-chloro-4-fluoro-phenyl)(trans-2-(trifluoromethyl)cyclobutyl)methyl)-2-oxoimidazolidine-4-carboxamide] returned an IC50 of 965 nM. This IC50 lies about 110-fold higher than the previous one.

In turn, `O=C1NC[C@@H](C(=O)NC(COc2ccc(F)c(Cl)c2)c2ccc(F)c(Cl)c2)N1` (single isomer, unassigned) [Example 1B, (S)—N—((R or S)-2-(3-chloro-4-fluorophenoxy)-1-(3-chloro-4-fluorophenyl)ethyl)-2-oxoimidazolidine-4-carboxamide] yielded an IC50 of 22 nM.

Regarding `O=C1NC[C@@H](C(=O)NC(CC2CCCOC2)c2ccc(F)c(Cl)c2F)N1` (single isomer, unassigned) [Example 26D, (S)-N-((R or S)-1-(3-chloro-2,4-difluorophenyl)-2-((R or S)-tetrahydro-2H-pyran-3-yl)ethyl)-2-oxoimidazolidine-4-carboxamide], inhibition was half-maximal at 7830 nM (IC50).

For the molecule `O=C1NC[C@@H](C(=O)NC(c2ccc(F)c(Cl)c2F)C2COC(C(F)(F)F)C2)N1` (single isomer, unassigned) [Example 79C, (S)-N-((R or S)-(3-chloro-2,4-difluoro-phenyl)((cis or trans)-5-(trifluoromethyl)tetrahydrofuran-3-yl)methyl)-2-oxoimidazolidine-4-carboxamide], the IC50 came to 886 nM.

`O=C1NC[C@@H](C(=O)NC(c2ccc(OC(F)(F)F)nc2)c2ccc(F)c(Cl)c2F)N1` (single isomer, unassigned) [Example 24B, (4S)-N-{(R or S)-(3-chloro-2,4-difluorophenyl)[6-(trifluoromethoxy)pyridin-3-yl]methyl}-2-oxoimidazolidine-4-carboxamide] showed an IC50 of 41 nM.

Regarding `O=C1NC[C@@H](C(=O)NC(c2ccc(F)c(Cl)c2)C2Cc3ccc(Cl)cc32)N1` (stereo partly drawn) [Example 71, (4S)-N-((3-chloro-4-fluorophenyl)(4-chlorobicyclo[4.2.0]-octa-1(6),2,4-trien-7-yl)methyl)-2-oxoimidazolidine-4-carboxamide], it took 44 nM to reach half-maximal inhibition (IC50).

`CC1(C)CC(C(NC(=O)[C@@H]2CNC(=O)N2)c2ccc(F)c(Cl)c2F)C1` (single isomer, unassigned) [Example 30A, (4S)-N-[(R or S)-(3-chloro-2,4-di-fluoro-phenyl)(3,3-dimethylcyclobutyl)meth-yl]-2-oxoimidazolidine-4-carboxamide]: the IC50 was found to be 4.6 nM.

The molecule `O=C1NC[C@@H](C(=O)NC(c2cnc(C3CC3)c(Cl)c2)c2ccc(F)c(Cl)c2F)N1` (single isomer, unassigned) [Example 13A, (4S)-N-[((R or S)-5-chloro-6-cyclo-propylpyridin-3-yl)(3-chloro-2,4-difluoro-phenyl)methyl]-2-oxoimidazolidine-4-carboxamide] had a half-maximal inhibitory concentration (IC50) of 1.1 nM. Against the preceding molecule, the IC50 is about 4.2-fold lower.
